Values quoted from earlier work, collected in US20200319191A1, “MOLECULAR PROFILING FOR CANCER” (Caris MPI, Inc., priority 2015, published 2020).
Like-named read-outs stand apart in the source and are kept apart here.

Experiments:
ribonucleotide reductase = target: T1, ribonucleotide reductase (Homo sapiens, UniProt P23921)
T1 sequence (P23921 1-792): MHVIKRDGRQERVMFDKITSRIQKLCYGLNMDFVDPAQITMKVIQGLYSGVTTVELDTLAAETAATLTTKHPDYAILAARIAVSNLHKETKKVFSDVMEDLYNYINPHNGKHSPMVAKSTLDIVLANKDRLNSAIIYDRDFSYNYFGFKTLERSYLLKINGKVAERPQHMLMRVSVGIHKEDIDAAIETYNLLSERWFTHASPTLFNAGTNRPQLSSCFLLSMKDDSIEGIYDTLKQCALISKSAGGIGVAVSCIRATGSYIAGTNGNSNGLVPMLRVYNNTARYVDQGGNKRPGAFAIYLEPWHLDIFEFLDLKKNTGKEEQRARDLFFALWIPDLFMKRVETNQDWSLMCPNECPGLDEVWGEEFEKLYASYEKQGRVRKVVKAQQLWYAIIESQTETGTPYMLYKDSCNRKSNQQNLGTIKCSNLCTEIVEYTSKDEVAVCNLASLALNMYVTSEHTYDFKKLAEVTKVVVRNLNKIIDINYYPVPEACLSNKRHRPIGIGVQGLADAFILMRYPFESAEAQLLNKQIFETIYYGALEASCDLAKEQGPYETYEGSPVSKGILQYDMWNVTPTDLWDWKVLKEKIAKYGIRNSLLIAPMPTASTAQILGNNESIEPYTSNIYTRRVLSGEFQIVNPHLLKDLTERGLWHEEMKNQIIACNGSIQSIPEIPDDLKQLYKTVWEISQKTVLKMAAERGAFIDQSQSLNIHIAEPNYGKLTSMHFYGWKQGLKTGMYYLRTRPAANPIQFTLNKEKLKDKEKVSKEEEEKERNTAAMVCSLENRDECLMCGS

c-Kit = c-Kit (Homo sapiens, UniProt P10721)
[1] = system: platelet-derived growth factor receptor (PDGFR)
[2] = for Evid. Level, ER Positive (IHC) / Bene. Level, ER Positive (IHC): Hormonal Agents; for sensitivity by EGFRvIII expression: preliminary studies; for response by TOPOI expression: expression of TOPOI

Chain of c-Kit (P10721 26-976): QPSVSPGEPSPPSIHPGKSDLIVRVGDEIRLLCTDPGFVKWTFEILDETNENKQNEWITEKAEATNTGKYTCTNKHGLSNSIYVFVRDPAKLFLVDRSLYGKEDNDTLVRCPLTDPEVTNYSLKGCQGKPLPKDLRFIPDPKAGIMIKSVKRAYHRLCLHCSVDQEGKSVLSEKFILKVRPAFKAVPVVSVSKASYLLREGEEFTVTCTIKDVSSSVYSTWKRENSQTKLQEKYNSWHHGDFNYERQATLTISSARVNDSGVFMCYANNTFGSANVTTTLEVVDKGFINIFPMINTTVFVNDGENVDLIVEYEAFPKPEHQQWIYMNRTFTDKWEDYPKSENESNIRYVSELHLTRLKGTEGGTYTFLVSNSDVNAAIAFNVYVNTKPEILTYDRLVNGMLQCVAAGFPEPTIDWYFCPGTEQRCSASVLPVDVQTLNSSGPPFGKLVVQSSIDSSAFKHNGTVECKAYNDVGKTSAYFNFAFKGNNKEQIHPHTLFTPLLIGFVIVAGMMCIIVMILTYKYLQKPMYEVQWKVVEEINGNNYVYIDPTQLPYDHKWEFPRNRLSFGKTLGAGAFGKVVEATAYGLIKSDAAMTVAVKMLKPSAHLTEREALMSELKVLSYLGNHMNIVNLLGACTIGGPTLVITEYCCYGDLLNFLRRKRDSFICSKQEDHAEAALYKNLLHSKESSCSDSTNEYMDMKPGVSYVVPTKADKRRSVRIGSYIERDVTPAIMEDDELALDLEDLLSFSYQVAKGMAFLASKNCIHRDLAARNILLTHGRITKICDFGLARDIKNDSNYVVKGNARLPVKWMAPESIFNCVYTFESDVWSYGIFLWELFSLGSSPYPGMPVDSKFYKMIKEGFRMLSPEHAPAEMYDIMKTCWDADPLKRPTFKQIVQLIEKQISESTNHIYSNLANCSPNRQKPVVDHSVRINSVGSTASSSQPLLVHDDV

## Nc1ccn([C@@H]2O[C@H](CO)[C@@H](O)C2(F)F)c(=O)n1 [Gemcitabine]
Ribonucleotide reductase
  effect on ribonucleotide reductase activity: synthesis. Gemcitabine is a deoxycitidine analogue which inhibits ribonucleotide reductase

## Cc1ccc(NC(=O)c2ccc(CN3CCN(C)CC3)cc2)cc1Nc1nccc(-c2cccnc2)n1 [Imatinib, imatinib]
c-Kit
  kinase activity: block the activity
[1]
  kinase activity: block the activity

## C=C1C[C@@H]2[C@H](CC[C@]3(C)C(=O)CC[C@@H]23)[C@@]2(C)C=CC(=O)C=C12 [exemestane]
[2]; ER Positive (IHC)=F
  Evid. Level, ER Positive (IHC): 1
[2]; ER Positive (IHC)=T
  Bene. Level, ER Positive (IHC): 1
  Evid. Level, ER Positive (IHC): 1

## C[C@]12CC[C@@H]3c4ccc(O)cc4C[C@@H](CCCCCCCCC[S+]([O-])CCCC(F)(F)C(F)(F)F)[C@H]3[C@@H]1CC[C@@H]2O (stereo partly shown) [fulvestrant]
[2]; ER Positive (IHC)=F
  Evid. Level, ER Positive (IHC): 1
[2]; ER Positive (IHC)=T
  Bene. Level, ER Positive (IHC): 1
  Evid. Level, ER Positive (IHC): 1

## COc1cc2ncnc(Nc3ccc(F)c(Cl)c3)c2cc1OCCCN1CCOCC1 [gefitinib]
[2]
  sensitivity by EGFRvIII expression: higher sensitivity to erlotinib and gefitinib, as well as to pan-Her inhibitors including

## Nc1ccn([C@@H]2O[C@H](CO)[C@@H](O)C2(F)F)c(=O)n1 [gemcitabine]
[2]; high RRM1 level
  resistance by RRM1 level: activity. High RRM1 level is associated with resistance to gemcitabine.

## CCc1c2c(nc3ccc(OC(=O)N4CCC(N5CCCCC5)CC4)cc13)-c1cc3c(c(=O)n1C2)COC(=O)[C@]3(O)CC [irinotecan]
[2]
  response by TOPOI expression: DNA molecule. Expression of TOPOI has been associated with response to TOPOI

## N#Cc1ccc(C(c2ccc(C#N)cc2)n2cncn2)cc1 [letrozole]
[2]; ER Positive (IHC)=F
  Evid. Level, ER Positive (IHC): 1
[2]; ER Positive (IHC)=T
  Bene. Level, ER Positive (IHC): 1
  Evid. Level, ER Positive (IHC): 1

## CC(=O)O[C@]1(C(C)=O)CC[C@H]2[C@@H]3C=C(C)C4=CC(=O)CC[C@]4(C)[C@H]3CC[C@@]21C [megestrol acetate]
[2]; ER Positive (IHC)=F
  Evid. Level, ER Positive (IHC): 1
[2]; ER Positive (IHC)=T
  Bene. Level, ER Positive (IHC): 1
  Evid. Level, ER Positive (IHC): 1

## CCOc1cc2ncc(C#N)c(Nc3ccc(OCc4ccccn4)c(Cl)c3)c2cc1NC(=O)/C=C/CN(C)C [neratinib]
[2]
  sensitivity by EGFRvIII expression: higher sensitivity to erlotinib and gefitinib, as well as to pan-Her inhibitors including

## O=C(O)C(=O)O.[NH-][C@@H]1CCCC[C@H]1[NH-].[Pt+2] [oxaliplatin]
[2]; APC wild type patients, metastatic setting, colorectal
  disease control rate by APC status: event in colorectal tumorigenesis. APC wild type patients have shown better disease

## CC(=O)O[C@H]1C(=O)[C@@]2(C)[C@H]([C@H](OC(=O)c3ccccc3)[C@]3(O)C[C@H](OC(=O)[C@H](O)[C@@H](NC(=O)c4ccccc4)c4ccccc4)C(C)=C1C3(C)C)[C@]1(OC(C)=O)CO[C@@H]1C[C@@H]2O [paclitaxel]
[2]; IHC positive: TLE3 F, TUBB3 F, PGP F
  PGP Positive (IHC) Bene. Level: 1
[2]; IHC positive: TLE3 F, TUBB3 F, PGP T
  PGP Positive (IHC) Bene. Level: 2
[2]; IHC positive: TLE3 F, TUBB3 No Data, PGP F
  PGP Positive (IHC) Bene. Level: 1
[2]; IHC positive: TLE3 F, TUBB3 No Data, PGP T
  PGP Positive (IHC) Bene. Level: 3
[2]; IHC positive: TLE3 F, TUBB3 T, PGP F
  PGP Positive (IHC) Bene. Level: 1
[2]; IHC positive: TLE3 F, TUBB3 T, PGP T
  PGP Positive (IHC) Bene. Level: 3
[2]; IHC positive: TLE3 No Data, TUBB3 F, PGP F
  PGP Positive (IHC) Bene. Level: 1
[2]; IHC positive: TLE3 No Data, TUBB3 F, PGP T
  PGP Positive (IHC) Bene. Level: 2
[2]; IHC positive: TLE3 No Data, TUBB3 No Data, PGP F
  PGP Positive (IHC) Bene. Level: 1
[2]; IHC positive: TLE3 No Data, TUBB3 No Data, PGP T
  PGP Positive (IHC) Bene. Level: 3
[2]; IHC positive: TLE3 No Data, TUBB3 T, PGP F
  PGP Positive (IHC) Bene. Level: 1
[2]; IHC positive: TLE3 No Data, TUBB3 T, PGP T
  PGP Positive (IHC) Bene. Level: 3
[2]; IHC positive: TLE3 T, TUBB3 F, PGP F
  PGP Positive (IHC) Bene. Level: 1
[2]; IHC positive: TLE3 T, TUBB3 F, PGP T
  PGP Positive (IHC) Bene. Level: 2
[2]; IHC positive: TLE3 T, TUBB3 No Data, PGP F
  PGP Positive (IHC) Bene. Level: 1
[2]; IHC positive: TLE3 T, TUBB3 No Data, PGP T
  PGP Positive (IHC) Bene. Level: 2
[2]; IHC positive: TLE3 T, TUBB3 T, PGP F
  PGP Positive (IHC) Bene. Level: 1
[2]; IHC positive: TLE3 T, TUBB3 T, PGP T
  PGP Positive (IHC) Bene. Level: 2
[2]; taxanes rule, Ref. No. 28
  PGP Positive (IHC) Evid. Level: 3

## CC/C(=C(\c1ccccc1)c1ccc(OCCN(C)C)cc1)c1ccccc1 [tamoxifen]
[2]; ER Positive (IHC)=F
  Evid. Level, ER Positive (IHC): 1
[2]; ER Positive (IHC)=T
  Bene. Level, ER Positive (IHC): 1
  Evid. Level, ER Positive (IHC): 1

## CO[C@H]1C[C@@H]2CC[C@@H](C)[C@@](O)(O2)C(=O)C(=O)N2CCCC[C@H]2C(=O)O[C@H]([C@H](C)C[C@@H]2CC[C@@H](OC(=O)C(C)(CO)CO)[C@H](OC)C2)CC(=O)[C@H](C)/C=C(\C)[C@@H](O)[C@@H](OC)C(=O)[C@H](C)C[C@H](C)/C=C/C=C/C=C/1C [temsirolimus]
[2]; PIK3CA exon 20 mutations
  benefit by PIK3CA status: associated with benefit from mTOR inhibitors (everolimus, temsirolimus). Evidence

## CC[C@@]1(O)C(=O)OCc2c1cc1n(c2=O)Cc2cc3c(CN(C)C)c(O)ccc3nc2-1 [topotecan]
[2]
  response by TOPOI expression: DNA molecule. Expression of TOPOI has been associated with response to TOPOI

## CN(C)CCOc1ccc(/C(=C(/CCCl)c2ccccc2)c2ccccc2)cc1 [toremifene]
[2]; ER Positive (IHC)=F
  Evid. Level, ER Positive (IHC): 1
[2]; ER Positive (IHC)=T
  Bene. Level, ER Positive (IHC): 1
  Evid. Level, ER Positive (IHC): 1

## CCCS(=O)(=O)Nc1ccc(F)c(C(=O)c2c[nH]c3ncc(-c4ccc(Cl)cc4)cc23)c1F [vemurafenib]
[2]; patients treated with BRAF inhibitor, likely paradoxical activation of the MAPK pathway
  tumors that develop in treated patients: cutaneous squamous cell carcinomas and keratoacanthomas that develop in patients treated

## CCC1=C[C@@H]2CN(C1)Cc1c([nH]c3ccccc13)[C@@](C(=O)OC)(c1cc3c(cc1OC)N(C)[C@H]1[C@@](O)(C(=O)OC)[C@H](OC(C)=O)[C@]4(CC)C=CCN5CC[C@]31[C@@H]54)C2 [vinorelbine]
[2]; loss of FBXW7, tubulin-targeting agents
  resistance by loss of FBXW7: loss of FBXW7 confers resistance to tubulin-targeting agents like paclitaxel or vinorelbine,
